Test results from patent US11471537B2, “Oligomer extended insulin-Fc conjugates” (Novo Nordisk A/S, priority 2017, dated 2022).
“And” between values parts separate entries of the source, which are not always exact repeats. Equal entries are not always repeated.

Tests used:
Sprague-Dawley rats = test: PD studies: blood glucose after subcutaneous dosing; type: in vivo; details: sc, dose 30 nmol/kg
Protocol: The pharmacodynamic effect of the Insulin Fc conjugates of the examples were investigated in normal male Sprague-Dawley rats weighing approx. 350 g at study start.
Animals had free access to food and water during the experiment period. They were dosed subcutaneously in the neck region with a dose of 30 nmol/kg (unless otherwise stated in the figures below). Blood samples for blood glucose and plasma insulin analysis were collected from the tongue veins up to 10 days post dosing. Blood glucose was measured using Biosen S Line (EKF).

isolated rat adipocytes = test: Insulin-stimulated lipogenesis; type: cell-based; details: 1% HSA; relative to the activity of human insulin (100%)
Protocol: Insulin-stimulated lipogenesis was measured in isolated rat adipocytes in presence of 1% HSA as described in Moody A J, Stan M A, Stan M, Gliemann J. A Simple Free Fat Cell Bioassay for Insulin. Hormone And Metabolic Research. 1974; 6(1):12-6, see results in Table 6.

insulin receptor A = insulin receptor A (Homo sapiens, UniProt P06213); test: Insulin receptor affinity; type: binding; details: relative to affinity of human insulin for insulin receptor A (100%)
Chain of insulin receptor A (P06213 28-1370 isoform P06213-2 limits assumed): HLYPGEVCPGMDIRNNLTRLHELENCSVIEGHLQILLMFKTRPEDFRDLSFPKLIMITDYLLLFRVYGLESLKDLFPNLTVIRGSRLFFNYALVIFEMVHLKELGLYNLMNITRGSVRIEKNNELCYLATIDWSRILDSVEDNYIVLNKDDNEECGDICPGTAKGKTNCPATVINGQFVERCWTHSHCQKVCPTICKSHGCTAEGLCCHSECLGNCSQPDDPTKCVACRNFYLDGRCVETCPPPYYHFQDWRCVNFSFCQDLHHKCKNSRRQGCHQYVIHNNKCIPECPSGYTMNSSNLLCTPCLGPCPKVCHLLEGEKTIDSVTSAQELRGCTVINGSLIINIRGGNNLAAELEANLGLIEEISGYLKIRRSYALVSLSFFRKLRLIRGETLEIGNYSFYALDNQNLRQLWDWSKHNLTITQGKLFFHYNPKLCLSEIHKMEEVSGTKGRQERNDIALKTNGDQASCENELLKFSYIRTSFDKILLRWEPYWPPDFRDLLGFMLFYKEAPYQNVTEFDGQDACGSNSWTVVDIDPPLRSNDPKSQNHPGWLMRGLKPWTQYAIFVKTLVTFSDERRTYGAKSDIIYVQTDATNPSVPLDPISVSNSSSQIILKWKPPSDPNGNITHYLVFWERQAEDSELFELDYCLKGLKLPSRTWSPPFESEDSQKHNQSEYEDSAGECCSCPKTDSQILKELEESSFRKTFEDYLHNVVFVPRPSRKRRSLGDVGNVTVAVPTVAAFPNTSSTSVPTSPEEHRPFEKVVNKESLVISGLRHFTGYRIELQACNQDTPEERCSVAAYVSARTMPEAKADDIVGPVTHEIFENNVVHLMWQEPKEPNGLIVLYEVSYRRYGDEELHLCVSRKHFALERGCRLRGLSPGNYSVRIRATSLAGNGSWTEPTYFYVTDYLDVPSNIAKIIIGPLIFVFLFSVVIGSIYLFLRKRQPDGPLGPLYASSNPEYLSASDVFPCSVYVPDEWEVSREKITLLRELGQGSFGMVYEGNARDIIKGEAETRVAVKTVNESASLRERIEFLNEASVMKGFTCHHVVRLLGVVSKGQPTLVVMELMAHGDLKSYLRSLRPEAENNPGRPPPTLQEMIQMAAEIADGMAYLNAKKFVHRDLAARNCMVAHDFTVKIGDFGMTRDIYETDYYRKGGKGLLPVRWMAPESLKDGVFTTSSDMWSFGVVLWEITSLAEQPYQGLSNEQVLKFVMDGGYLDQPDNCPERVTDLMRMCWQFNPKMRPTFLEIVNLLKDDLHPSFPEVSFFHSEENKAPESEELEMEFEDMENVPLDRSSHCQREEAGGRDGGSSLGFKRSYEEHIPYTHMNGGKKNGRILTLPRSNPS
Chain of insulin receptor A (P06213 763-1382 partner limits assumed): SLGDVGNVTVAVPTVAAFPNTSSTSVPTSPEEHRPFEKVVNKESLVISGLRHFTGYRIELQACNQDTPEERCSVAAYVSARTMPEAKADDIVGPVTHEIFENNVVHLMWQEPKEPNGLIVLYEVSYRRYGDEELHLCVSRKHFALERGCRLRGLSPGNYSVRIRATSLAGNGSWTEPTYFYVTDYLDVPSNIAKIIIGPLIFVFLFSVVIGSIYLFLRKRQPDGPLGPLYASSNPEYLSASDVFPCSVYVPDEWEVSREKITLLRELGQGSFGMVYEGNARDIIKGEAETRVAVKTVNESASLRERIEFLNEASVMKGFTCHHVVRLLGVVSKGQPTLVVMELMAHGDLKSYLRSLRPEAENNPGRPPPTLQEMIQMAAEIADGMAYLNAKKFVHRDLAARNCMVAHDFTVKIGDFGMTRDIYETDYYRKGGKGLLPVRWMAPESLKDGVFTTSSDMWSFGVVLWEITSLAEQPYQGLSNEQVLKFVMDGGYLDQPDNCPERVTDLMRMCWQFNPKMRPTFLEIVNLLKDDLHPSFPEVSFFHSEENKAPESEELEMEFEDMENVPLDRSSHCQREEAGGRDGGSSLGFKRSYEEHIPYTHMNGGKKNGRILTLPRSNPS

[1] = PK studies: intravenous and subcutaneous administration to SD rats, insulin-Fc concentrations by immuno-assay; type: in vivo; details: for PK rat sc [T½ (h)] Mean Value: subcutaneous
Protocol: Insulin-Fc conjugates were tested in vivo by intravenous and subcutaneous administration to SD rats. Blood samples were collected and the insulin-Fc concentrations were measured by immuno-assay.

Substance | Insulin receptor affinity [IC50 relative to HI (%)] Mean Value (insulin receptor A) [%] | Average blood glucose (Sprague-Dawley rats; time 0 days) [mM] | Average blood glucose (Sprague-Dawley rats; time 0.041667 days) [mM] | Average blood glucose (Sprague-Dawley rats; time 0.125 days) [mM] | Average blood glucose (Sprague-Dawley rats; time 0.291667 days) [mM] | Average blood glucose (Sprague-Dawley rats; time 1 day) [mM] | Average blood glucose (Sprague-Dawley rats; time 2 days) [mM] | Average blood glucose (Sprague-Dawley rats; time 3 days) [mM] | Average blood glucose (Sprague-Dawley rats; time 4 days) [mM] | Average blood glucose (Sprague-Dawley rats; time 6 days) [mM] | Average blood glucose (Sprague-Dawley rats; time 7 days) [mM] | Average blood glucose (Sprague-Dawley rats; time 8 days) [mM] | Average blood glucose (Sprague-Dawley rats; time 9 days) [mM] | Average blood glucose (Sprague-Dawley rats; time 10 days) [mM] | Lipogenesis in rat adipocytes [Potency (%)] Mean Value (isolated rat adipocytes) [%] | PK rat iv [T½ (h)] Mean Value [1] [h] | PK rat sc [T½ (h)] Mean Value [1] [h] | further results
(A14E, A21G, A22(GQAP)19, A98K^, A99P, B25H, B29R, desB30 human insulin)/(227A, 234A, 235K, 297E, 315Q, 384Q, des447 hIgG4-Fc(228-447))4-[bis[2-[(2-acetyl)amino]ethyl]amino]-4-oxo-butanoyl Conjugate [Example 5.15] | 3.68 | 6.748 | 6.168 | 5.052 | 3.292 | 2.524 | 2.752 | 4.116 | 5.744 | 6.32 | 6.516 | 5.904 |  |  | 3.68 | 58.4 | 67.6 | 
(A14E, A21G, A22(GQEP)19, A98K^, A99P, B25H, B29R, desB30 human insulin)/(227A, 234A, 235K, 297E, 315Q, 384Q, des447 hIgG4-Fc(228-447))4-[bis[2-[(2-acetyl)amino]ethyl]amino]-4-oxo-butanoyl Conjugate [Example 5.12] | 1.85 |  |  |  |  |  |  |  |  |  |  |  | 5.204 | 5.556 | 2.35 | 23.3 | 25.1 | Average blood glucose (Sprague-Dawley rats; time 0 days, listed as Ex 5.12): 5.816 mM and 5.516 mM; Average blood glucose (Sprague-Dawley rats; time 0.041667 days, listed as Ex 5.12): 5.598 mM and 6.16 mM; Average blood glucose (Sprague-Dawley rats; time 0.125 days, listed as Ex 5.12): 5.674 mM and 4.608 mM; Average blood glucose (Sprague-Dawley rats; time 0.208333 days): 5.338 mM; Average blood glucose (Sprague-Dawley rats; time 0.291667 days, listed as Ex 5.12): 4.598 mM and 3.988 mM; Average blood glucose (Sprague-Dawley rats; time 1 day, listed as Ex 5.12): 2.986 mM and 2.88 mM; Average blood glucose (Sprague-Dawley rats; time 2 days, listed as Ex 5.12): 2.524 mM and 2.348 mM; Average blood glucose (Sprague-Dawley rats; time 3 days, listed as Ex 5.12): 2.576 mM and 2.972 mM; Average blood glucose (Sprague-Dawley rats; time 4 days, listed as Ex 5.12): 3.284 mM and 6.028 mM; Average blood glucose (Sprague-Dawley rats; time 5 days, listed as Ex 5.12): 6.884 mM and 6.06 mM; Average blood glucose (Sprague-Dawley rats; time 6 days, listed as Ex 5.12): 6.506 mM and 5.74 mM; Average blood glucose (Sprague-Dawley rats; time 7 days, listed as Ex 5.12): 6.202 mM and 5.716 mM; Average blood glucose (Sprague-Dawley rats; time 8 days, listed as Ex 5.12): 6.046 mM and 5.568 mM
A14E, A21G, A22(GQAPGQEP)6, A70K^, A71P, B25H, B29R, desB30 human insulin/(227A, 234A, 235K, 297E, 315Q, 384Q, des447 hIgG4-Fc(228-447))4-[bis[2-[(2-acetyl)amino]ethyl]amino]-4-oxo-butanoyl Conjugate [Example 5.14] | 5.37 | 6.248 | 5.32 | 4.08 | 3.048 | 2.356 | 2.4 | 2.832 | 4.304 | 6.032 | 6.076 | 5.5 |  |  | 4.86 | 46.6 | 54.0 | 

Second part, led by results:

Insulin receptor affinity [IC50 relative to HI (%)] Mean Value (insulin receptor A) [%] | Substance | Average blood glucose (Sprague-Dawley rats; time 0 days) [mM] | Average blood glucose (Sprague-Dawley rats; time 0.041667 days) [mM] | Average blood glucose (Sprague-Dawley rats; time 0.125 days) [mM] | Average blood glucose (Sprague-Dawley rats; time 0.291667 days) [mM] | Average blood glucose (Sprague-Dawley rats; time 1 day) [mM] | Average blood glucose (Sprague-Dawley rats; time 2 days) [mM] | Average blood glucose (Sprague-Dawley rats; time 3 days) [mM] | Average blood glucose (Sprague-Dawley rats; time 4 days) [mM] | Average blood glucose (Sprague-Dawley rats; time 6 days) [mM] | Average blood glucose (Sprague-Dawley rats; time 7 days) [mM] | Average blood glucose (Sprague-Dawley rats; time 8 days) [mM] | Average blood glucose (Sprague-Dawley rats; time 9 days) [mM] | Average blood glucose (Sprague-Dawley rats; time 10 days) [mM] | Lipogenesis in rat adipocytes [Potency (%)] Mean Value (isolated rat adipocytes) [%] | PK rat iv [T½ (h)] Mean Value [1] [h] | PK rat sc [T½ (h)] Mean Value [1] [h] | further results
3.95 | (A14E, A21G, A22(GQAP)18, A94G, A95Q, A96A, A97K^, A98P, B29R, desB30 human insulin)/(227A, 234A, 235K, 297E, 315Q, 384Q, des447 hIgG4-Fc(228-447))4-[bis[2-[(2-acetyl)amino]ethyl]amino]-4-oxo-butanoyl Conjugate [Example 5.26] | 5.82 | 5.984 | 5.3 | 4.384 | 3.332 | 4.992 | 6.352 | 5.804 | 6.232 | 6.048 | 6.236 | 5.972 | 5.88 | 3.23 | 49.8 | 53.5 | Average blood glucose (Sprague-Dawley rats; time 5 days): 5.752 mM
3.86 | (A14E, A21G, A22(GQAP)19, A98K^, A99P, B25H, B29R, desB30 human insulin)/(227A, 234A, 235K, 297E, 315Q, 384Q, des447 hIgG4-Fc(228-447))6-[bis[2-[(2-acetyl)amino]ethyl]amino]-6-oxo-hexanoyl conjugate [Example 5.16] | 6.544 | 5.972 | 4.74 | 4.028 | 2.42 | 2.592 | 3.156 | 5.7 | 5.784 | 5.848 | 5.72 |  |  | 4.34 | 25.7 | 36.2 | 
4.70 | (A14E, A21G, A22(GQAP)24, A118G, A119Q, A120A, A121K^, A122P, B25H, B29R, desB30 human insulin)/(227A, 234A, 235K, 297E, 315Q, 384Q, des447 hIgG4-Fc(228-447))4-[bis[2-[(2-acetyl)amino]ethyl]amino]-4-oxo-butanoyl Conjugate [Example 5.23] | 5.384 | 5.768 | 4.808 | 4.136 | 2.86 | 2.6 | 3.536 | 5.544 | 5.796 | 6.056 | 5.672 | 5.62 | 6.308 | 5.36 | 57.1 | 73.2 | Average blood glucose (Sprague-Dawley rats; time 5 days): 5.684 mM
4.00 | A14E, A21G, A22(GQAPGQAPGQEP)6-GQAP, A98K^, A99P, B29R, desB30 human insulin/(227A, 234A, 235K, 297E, 315Q, 384Q, des447 hIgG4-Fc(228-447))4-[bis[2-[(2-acetyl)amino]ethyl]amino]-4-oxo-butanoyl Conjugate [Example 5.19] | 6.4 | 5.988 | 4.92 | 3.84 | 2.632 | 2.62 | 4.312 | 6.104 | 5.9 | 6.128 | 5.512 |  |  | 3.02 | 30.8 | 55.0 | 
3.98 | A14E, A21G, A22(GQEP)12, A70K^, A71P, B25H, B29R, desB30 human insulin/(227A, 234A, 235K, 297E, 315Q, 384Q, des447 hIgG4-Fc(228-447))4-[bis[2-[(2-acetyl)amino]ethyl]amino]-4-oxo-butanoyl Conjugate [Example 5.17] | 6.372 | 5.84 | 5.14 | 3.672 | 2.6 | 2.704 | 2.772 | 5.232 | 5.88 | 5.908 | 5.656 |  |  | 4.39 | 46.2 | 40.3 | 
